The source of these data is US8129426B2, “Water-soluble artemisinin derivatives, their preparation methods, the pharmaceutical compositions and the use thereof” (priority 2005, dated 2012).

One test concerns DTH mice. Description: Delayed hypersensitive response animal model (DTH). It counts as in vivo. Conditions: for thickness difference of swelling on ears: FIG. 1, DTH mice; for weight difference of ear slices: FIG. 2, DTH mice. As to the method: [4] Delayed Hypersensitive Response Animal Model (DTH)
1) The sensitization was induced by topical application of 20 μL of 0.5% (v/v) DNFB in acetone: olive oil (4:1) onto each rear paw of mice on day 0 and 1;
2) Excipient and testing compounds were given by the oral route 1 day before challenge and then once a day for 2 days (days 8-10);
3) The mice were challenged by application of 10 μL of 0.5% (v/v) DNFB on the inner and outer surfaces of the right ear on day 9;
4) The increase in the ear patch weight (8-mm punches) and ear thickness between the left and right ear was measured 30-48 h after challenge.

The test system of test [1] is B-cell proliferation (LPS). Description: Lymphocyte proliferation test, B-cell proliferation stimulated with LPS. The test is classed as cell-based, Balb/c mice. Conditions: concentration without any cytotoxicity; screened at 10, 1 and 0.1 μm. As to the method: (§1) Experimental animals: inbred Balb/c male mice, 6-8 weeks old.
(§2) RPMI-1640 culture solution (Roswell Park Memorial Institure-1640 medium, from GibcoBRL, Life Technologies, USA) with 10% fetal bovine serum (FBS), 100 U/mL penicillin, 100 μg/mL streptomycin, 10 mM HEPES (4-(2-hydroxyethyl)-1-piperazineethane sulfonic acid) and 50 μM 2-ME (2-Mercaptoethanol).
(§3) Stimulant: Concanavalin (ConA), and bacterial Lipopolysaccharide (LPS, from Escherichia Coli 055: B5), diluted with RPMI-1640 culture solution to suitable concentration before using.
(§4) [2] Lymphocyte Proliferation Test
(§5) 1) Mice were killed by cervical dislocation, and their spleens were collected aseptically and prepared into a single cell suspension. The cell concentration was adjusted to 4×10^6/mL with RPMI-1640 medium containing 10% FBS.
(§6) 2) 100 μL cell suspension, 50 μL testing sample solution, 50 μL ConA or LPS solution were added into a 96-well plate, and for the control group, 50 μL medium containing 10% FBS was added. The total volume was 200 μL.
(§7) 3) The cell culture was incubated in 5% CO2 incubator at 37 °C for 48 hours, and 0.5 μCi [^3H]-thymidine (25 μL/well) was added into each well 7-8 hours before the termination of the incubation.
(§8) 4) After the incubation was terminated, the cells were harvested on a glassfiber film with a cell harvestor (HARVESTER96®, TOMTEC), and after scintillation fluid was added, the incorporation of [^3H]-thymidine in the cell DNA was measured with a liquid scintillation counter (MicroBeta Trilux®, PerkinElmer) to indicate the state of cell proliferation.

Test [2] relates to response lymphocytes in MLR. Description: Homologous and heterogeneous mixed lymphocyte proliferation reaction (MLR). The test is classed as cell-based, C57BL/6 and Balb/c mice. Conditions: read-out: EC50, inhibition of proliferation of the response lymphocytes in MLR. The text has this: [3] Homologous and Heterogeneous Mixed Lymphocyte Proliferation Reaction (MLR)
1) C57BL/6 and Balb/c mice were killed by cervical dislocation, and their spleens were collected aseptically and levigated into a single cell suspension. After removing the erythrocytes, the cell concentration was adjusted to 6×10^6/mL with RPMI-1640 medium containing 10% FBS.
2) The spleen cells of C57BL/6 mice as the response cells and the spleen cells of Balb/c mice (irradiated with Co60, 3000 rads) as the stimulus cells were mixed in equal volumes.
3) 100 μL cell mixture, 100 μL testing sample were added into a 96-well plate. For the control group, 100 μL medium containing 10% serum was added. And single culture controls of the two kinds of cells were set.
4) The cell cultures were incubated in 5% CO2 incubator at 37 °C for 3, 4 or 5 days. 25 μL ^3H diluent (i.e. […] [^3H]-thymidine) was added one day before the termination of the incubation.
5) After the incubation was terminated, the plate was freezed in a −20[…] refrigerator.
6) The cells were harvested on a glassfiber film with a cell harvestor (HARVESTER96′, TOMTEC), and the incorporation of [^3H]-thymidine in DNA was measured with a liquid scintillation counter (MicroBeta Trilux®, PerkinElmer) to indicate the state of cell proliferation.

The test system of test [3] is T-cell proliferation (Con A). Briefly: Lymphocyte proliferation test, T-cell proliferation stimulated with Con A. It counts as cell-based, Balb/c mice. Set-up: concentration or dose not given beside the values. Conditions: concentration without any cytotoxicity; screened at 10, 1 and 0.1 μm. As to the method: as §1, §2, §3, §4, §5, §6, §7, §8
Test [4] relates to mice arthritis induced by bovine collagen type II. Briefly: Mice arthritis model induced by bovine collagen type II. It counts as in vivo, DBA/1 mice. Conditions: for scorings of the arthritis degree: FIG. 3 and FIG. 4, with and without the compound; for swelling of the mice' joints: oral, p<0.05.

Turning to `CC1CCC2C(C)C(OCCN)OC3OC4(C)CCC1C32OO4` (stereo not drawn) [Example 1, 2′-amino arteether (β type)], in the test with DTH mice, the “thickness difference of swelling on ears” value is listed as “obviously reduced the swelling degree on ears” and the “weight difference of ear slices” value is reported as “obviously reduced the weight of swelling ears”. Besides, the “inhibiting rate of swelling of the ear of mice compared with the control group” value in the test on DTH mice (oral, 50 mg/kg, p<0.01) came to 56.5%. Besides, in test [1], the “inhibiting rate to B-cell proliferation (LPS)” value (shortened to “inhibiting rate … (LPS)”) was found to be 73%. Further, the EC50 in test [2] was 3480 ± 720 nM. Besides, the “inhibiting rate to T-cell proliferation (Con A)” value (“inhibiting rate … (Con A)” below) in test [3] was 65%. For the same compound, the “scorings of the arthritis degree” value in test [4] was “can prevent and cure the mice arthritis induced by bovine collagen type II and inhibit the swelling of the sicked joints”. In addition, in test [4] (1 mg/kg), the “swelling of the mice' joints” value was “obviously reduce the swelling of the mice' joints”.

For `CC1CCC2C(C)C(OCC(O)CN)OC3OC4(C)CCC1C32OO4` (stereo not drawn) [Example 2, 3′-amino-2′-hydroxy-artemisinin propyl ether (β type)], in test [1], the “inhibiting rate … (LPS)” value came to 48%. In addition, the “inhibiting rate … (Con A)” value in test [3] stood at 48%.

With `CNCC(O)COC1OC2OC3(C)CCC4C(C)CCC(C1C)C24OO3` (stereo not drawn) [Example 3, 3′-methylamino-2′-hydroxy-artemisinin propyl ether (β type)], in test [1], the “inhibiting rate … (LPS)” value worked out at 51%. The “inhibiting rate … (Con A)” value in test [3] is on record as 47%.

In the case of `CC1CCC2C(C)C(OCC(O)C(N)c3ccccc3)OC3OC4(C)CCC1C32OO4` (stereo not drawn) [Example 8, 3′-phenyl-3′-amino-2′-hydroxy-artemisinin propyl ether (β type)], in test [1], the “inhibiting rate … (LPS)” value stood at 42%. In addition, the “inhibiting rate … (Con A)” value in test [3] stood at 13%.

As to `CC1CCC2C(C)C(OCC(O)CN3CCCC3)OC3OC4(C)CCC1C32OO4` (stereo not drawn) [Example 11, 3′-pyrrolidinyl-2′-hydroxy-artemisinin propyl ether (β type)], in the test with DTH mice, the “thickness difference of swelling on ears” value is “obviously reduced the swelling degree on ears” and the “weight difference of ear slices” value was “obviously reduced the weight of swelling ears”. The “inhibiting rate of swelling of the ear of mice compared with the control group” value in the test with DTH mice (oral, 100 mg/kg, p<0.01) is on record as 50.5%. In test [1], the “inhibiting rate … (LPS)” value is 99%. Also, the “inhibiting rate … (Con A)” value in test [3] worked out at 48%.

Take `CC1CCC2C(C)C(OCC(O)CN3CCCCC3)OC3OC4(C)CCC1C32OO4` (stereo not drawn) [Example 12, 3′-piperidyl-2′-hydroxy-artemisinin propyl ether (β type)]: the “inhibiting rate … (LPS)” value in test [1] was found to be 47%. Moreover, the “inhibiting rate … (Con A)” value in test [3] amounted to 47%.

In the case of `CC1CCC2C(C)C(OCC(O)CNC(C)(C)C)OC3OC4(C)CCC1C32OO4` (stereo not drawn) [Example 14, 3′-tert-butylamino-2′-hydroxy-artemisinin propyl ether (β type)], in the test on DTH mice, the “thickness difference of swelling on ears” value is on record as “obviously reduced the swelling degree on ears” and the “weight difference of ear slices” value is listed as “obviously reduced the weight of swelling ears”. Moreover, the “inhibiting rate of swelling of the ear of mice compared with the control group” value in the test on DTH mice (oral, 50 mg/kg, p<0.01) was 52.2%. The “inhibiting rate … (LPS)” value in test [1] was found to be 81%. Also, in test [2], the EC50 is 670 ± 12 nM. In test [3], the “inhibiting rate … (Con A)” value is reported as 52%. Further, the “scorings of the arthritis degree” value in test [4] was “can prevent and cure the mice arthritis induced by bovine collagen type II and inhibit the swelling of the sicked joints”. In test [4] (0.5 mg/kg), the “swelling of the mice' joints” value was “obviously reduce the swelling of the mice' joints”.

In the case of `CC1CCC2C(C)C(OCC(O)C(c3ccccc3)N3CCCCC3)OC3OC4(C)CCC1C32OO4` (stereo not drawn) [Example 16, 3′-phenyl-3′-piperidyl-2′-hydroxy-artemisinin propyl ether (β type)], the “inhibiting rate … (LPS)” value in test [1] is on record as 51%. The “inhibiting rate … (Con A)” value in test [3] is 0%.

As for `CC1CCC2C(C)C(OCC(O)C(c3ccccc3)N(C)C)OC3OC4(C)CCC1C32OO4` (stereo not drawn) [Example 17, 3′-phenyl-3′-dimethylamino-2′-hydroxy-artemisinin propyl ether (β type)], in test [1], the “inhibiting rate … (LPS)” value is on record as 24%. The “inhibiting rate … (Con A)” value in test [3] was found to be 6%.

As to `CC1CCC2C(C)C(OCC(O)C(NC(C)(C)C)c3ccccc3)OC3OC4(C)CCC1C32OO4` (stereo not drawn) [Example 18, 3-phenyl-3′-tert-butylamino-2′-hydroxy-artemisinin propyl ether (β type)], the “inhibiting rate … (LPS)” value in test [1] is reported as 26%. Moreover, in test [3], the “inhibiting rate … (Con A)” value is reported as 9%.

As to cyclosporine A [reference compound], in the test on DTH mice (5 mg/kg), the “inhibiting rate of swelling of the ear of mice compared with the control group” value came out at 40.6%.
